From patent US4714698A, “8-alkylthio-2-piperazino-pyrimido[5,4-d]-pyrimidines” (Dr. Karl Thomae GmbH, priority 1984, dated 1987)

How the values were obtained:
[1] = molecular target: phosphodiesterase from human thrombocytes; test: PDE inhibition (PDE assay), phosphodiesterase from human thrombocytes, 3H-cAMP substrate; format: biochemical; settings: concentration which inhibited PDE activity by 50%, 1 μmol/l 3H-cAMP as substrate, read-out: PDE inhibition ED50, Human thrombocytes
Experimental: Phosphodiesterase was obtained from human thrombocytes by an analogous method.
(§1) The PDE inhibition by the test substances was determined using 1 μmol/1 of ^3 H-cAMP as substrate. The PDE inhibition was determined by measuring the degradation of the substrate ^3 H-cAMP used into ^3 H-AMP by comparison with the control without the test substance. The ^3 H-AMP formed was separated from the remaining ^3 H-cAMP by precipitation with zinc sulphate-barium hydroxide.
(§2) The ED50, i.e. the concentration which inhibited the PDE activity by 50%, was calculated by linear regression analysis.

[2] = system: phosphodiesterase from B16 melanoma tissue (B16 tumour cells); test: PDE inhibition (PDE assay), phosphodiesterase from B16 melanoma tissue, 3H-cAMP substrate; format: biochemical, mice; settings: concentration which inhibited PDE activity by 50%, 1 μmol/l 3H-cAMP as substrate, read-out: PDE inhibition ED50, B16 tumour cells
Experimental: The phosphodiesterase was obtained from B16 melanoma tissue from mice by centrifuging the homogenised tissue at 5000×g (15 minutes at 4° C.). The tissues were homogenized by repeated freezing and thawing and homogenisation according to Potter-Elvehjem or by ultrasound. The homogenised supernatant containing the PDE was deep frozen and stored in batches at -25° C.
as §1, §2

[3] = Tolerability / lethality in mice; format: in vivo; settings: 10 animals
From the text: Moreover, the new compounds are well tolerated.

SMILES	IC50 [1] [nM]	IC50 [2] [nM]	deaths of animals ([3]; 20 mg/kg i.v.)	deaths of animals ([3]; 100 mg/kg p.o.)
CSc1ncnc2c(N3CCCC3)nc(N3CCNCC3)nc12 [Substance A, 8-Methylthio-2-piperazino-4-pyrrolidino-pyrimido[5,4-d]pyrimidine]	1600	66	none of the 10 animals used died	none of the 10 animals used died
CCN(CC)c1nc(N2CCNCC2)nc2c(SC)ncnc12 [Substance B, 4-Diethylamino-8-methylthio-2-piperazino-pyrimido[5,4-d]pyrimidine]	1300	37	–	–
CCCCCCNc1nc(N2CCNCC2)nc2c(SC)ncnc12 [Substance C, 4-n-Hexylamino-8-methylthio-2-piperazino-pyrimido[5,4-d]pyrimidine]	1200	120	–	–
CSc1ncnc2c(N3CCCCCC3)nc(N3CCNCC3)nc12 [Substance D, 4-Hexamethyleneimino-8-methylthio-2-piperazinopyrimido[5,4-d]pyrimidine]	1700	28	–	–
